The values that follow come from US7858640B2, “Quinolines and their therapeutic use” (Pulmagen Therapeutics (Asthma) Limited, priority 2005, dated 2010).

The assay deals with T1, CRTH2 receptor (Homo sapiens, UniProt Q9Y5Y4).
T1 sequence (Q9Y5Y4 1-395): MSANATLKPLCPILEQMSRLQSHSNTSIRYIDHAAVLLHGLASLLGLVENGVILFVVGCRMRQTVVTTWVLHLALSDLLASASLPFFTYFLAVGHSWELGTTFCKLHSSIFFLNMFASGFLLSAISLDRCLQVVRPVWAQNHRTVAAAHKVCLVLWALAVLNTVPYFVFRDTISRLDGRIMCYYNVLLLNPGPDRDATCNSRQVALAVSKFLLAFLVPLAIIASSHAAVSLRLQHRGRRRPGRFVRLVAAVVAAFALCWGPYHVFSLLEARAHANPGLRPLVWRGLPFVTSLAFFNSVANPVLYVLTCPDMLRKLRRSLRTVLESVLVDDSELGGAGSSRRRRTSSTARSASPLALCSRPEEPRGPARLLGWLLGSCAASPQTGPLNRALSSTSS
In words: Radioligand binding assay ([3H]-PGD2 displacement, SPA). The arrangement: expressed in transfected cells; host or cells: HEK cell membranes. To be noted: HEK cell membranes expressing the CRTH2 receptor, 1 nM [3H]-PGD2; Ki from IC50 by Cheng-Prusoff. The method, then:
Radioligand Binding Assay
The receptor binding assay is performed in a final volume of 200 μL binding buffer [10 mM BES (pH 7.4), 1 mM EDTA, 10 mM manganese chloride, 0.01% BSA] and 1 nM [^3H]-PGD2 (Amersham Biosciences UK Ltd). Ligands are added in assay buffer containing a constant amount of DMSO (1% by volume). Total binding is determined using 1% by volume of DMSO in assay buffer and non-specific binding is determined using 10 μM of unlabeled PGD2 (Sigma). Human embryonic kidney (HEK) cell membranes (3.5 μg) expressing the CRTH2 receptor are incubated with 1.5 mg wheatgerm agglutinin SPA beads and 1 nM [^3H]-PGD2 (Amersham Biosciences UK Ltd) and the mixture incubated for 3 hours at room temperature. Bound [^3H]-PGD2 is detected using a Microbeta TRILUX liquid scintillation counter (Perkin Elmer). Compound IC50 value is determined using a 6-point dose response curve in duplicate with a semi-log compound dilution series. IC50 calculations are performed using Excel and XLfit (Microsoft), and this value is used to determine a Ki value for the test compound using the Cheng-Prusoff equation.

pKi: −log10 of the molar value.

Turning to `COc1c(Cc2ccc(Cl)cc2)c(C)nc2c(Cl)ccc(OCC(=O)O)c12` [Example 1, [8-chloro-3-(4-chlorobenzyl)-4-methoxy-2-methylquinolin-5-yloxy]acetic Acid], the pKi (commonly the negative decadic logarithm of the Ki, by convention in mol/L) is more than 7.00.
The figure for `Cc1nc2c(Cl)ccc(OCC(=O)O)c2c(C)c1Cc1ccc(Cl)cc1` [Example 2, [8-chloro-3-(4-chlorobenzyl)-2,4-dimethylquinolin-5-yloxy]acetic Acid] is more than 7.00; for `CCOc1nc2cc(C)cc(CC(=O)O)c2c(C)c1Cc1ccc(Cl)cc1` [Example 3, [3-(4-chlorobenzyl)-2-ethoxy-4,7-dimethylquinolin-5-yl]acetic Acid] it is more than 7.00.
The figure for `Cc1cc(OCC(=O)O)c2c(C)c(Cc3ccc(Cl)cc3)c(C)nc2c1` [Example 4, [3-(4-chlorobenzyl)-2,4,7-trimethylquinolin-5-yloxy]acetic Acid] is more than 6.00; for `Cc1cc(CC(=O)O)c2c(C)c(Cc3ccc(Cl)cc3)c(C)nc2c1` [Example 5, [3-(4-chlorobenzyl)-2,4,7-trimethylquinolin-5-yl]acetic Acid] it is more than 6.00.
For `Cc1nc2c(Cl)ccc(CC(=O)O)c2c(C)c1Cc1ccc(Cl)cc1` [Example 6, [8-chloro-3-(4-chlorobenzyl)-2,4-dimethylquinolin-5-yl]acetic Acid] the value was more than 7.00; for `Cc1nc2c(Cl)ccc(OCC(=O)O)c2c(C)c1Oc1ccc(Cl)cc1` [Example 7, [8-chloro-3-(4-chlorophenoxy)-2,4-dimethylquinolin-5-yloxy]acetic Acid], more than 7.00; for `Cc1nc2c(Cl)ccc(OCC(=O)O)c2c(C)c1Sc1ccc(Cl)cc1` [Example 8, [8-chloro-3-(4-chlorophenylsulfanyl)-2,4-dimethylquinolin-5-yloxy]acetic Acid], more than 7.00.
In turn, `Cc1nc2c(Cl)ccc(OCC(=O)O)c2c(OC(F)F)c1Cc1ccc(Cl)cc1` [Example 9, [8-chloro-3-(4-chlorobenzyl)-4-difluoromethoxy-2-methylquinolin-5-yloxy]acetic Acid] had a pKi of more than 7.00.
The figure for `Cc1nc2c(Cl)ccc(OCC(=O)O)c2cc1Cc1ccc(Cl)cc1` [Example 10, [8-chloro-3-(4-chlorobenzyl)-2-methylquinolin-5-yloxy]acetic Acid] is more than 6.00; for `Cc1nc2cc(Cl)cc(CC(=O)O)c2c(C)c1Cc1ccc(Cl)cc1` [Example 11, [7-chloro-3-(4-chlorobenzyl)-2,4-dimethylquinolin-5-yl]acetic acid] it is more than 7.00; for `Cc1nc2c(Cl)ccc(OCC(=O)NS(C)(=O)=O)c2c(C)c1Cc1ccc(Cl)cc1` [Example 13, N-{2-[8-chloro-3-(4-chlorobenzyl)-2,4-dimethylquinolin-5-yloxy]-acetyl}methanesulfonamide] it is more than 6.00.
Compound `Cc1nc2c(Cl)ccc(OCC(=O)NS(=O)(=O)c3ccccc3)c2c(C)c1Cc1ccc(Cl)cc1` [Example 14, N-{2-[8-chloro-3-(4-chlorobenzyl)-2,4-dimethylquinolin-5-yloxy]-acetyl}benzenesulfonamide] showed a pKi of more than 5.00.
In the case of `Cc1nc2c(Cl)ccc(CC(=O)O)c2c(C)c1Oc1ccc(Cl)cc1` [Example 15, [8-chloro-3-(4-chlorophenoxy)-2,4-dimethylquinolin-5-yl]acetic Acid], the pKi is more than 7.00.
Take `CCc1c(Cc2ccc(Cl)cc2)c(C)nc2c(Cl)ccc(OCC(=O)O)c12` [Example 16, [8-chloro-3-(4-chlorobenzyl)-4-ethyl-2-methylquinolin-5-yloxy]acetic acid]: the pKi is more than 7.00.
For `CCc1nc2c(Cl)ccc(OCC(=O)O)c2c(C)c1Cc1ccc(Cl)cc1` [Example 17, [8-chloro-3-(4-chlorobenzyl)-2-ethyl-4-methylquinolin-5-yloxy]acetic Acid] the value was more than 7.00.
For `Cc1c(Cc2ccc(F)cc2)c(OC(F)F)nc2c(Cl)ccc(OCC(=O)O)c12` [Example 19, [8-chloro-2-difluoromethoxy-3-(4-fluorobenzyl)-4-methylquinolin-5-yloxy]acetic acid], the pKi is more than 7.00.
The figure for `Cc1nc2c(Cl)ccc(OCC(=O)O)c2c(C)c1S(=O)(=O)c1ccc(Cl)cc1` [Example 21, [8-chloro-3-(4-chlorobenzenesulfonyl)-2,4-dimethylquinolin-5-yloxy]acetic Acid] is more than 7.00; for `Cc1nc2c(Cl)ccc(OCC(=O)O)c2c(C)c1[S+]([O-])c1ccc(Cl)cc1` (centres unmarked) [Example 22, [8-chloro-3-(4-chlorobenzenesulfinyl)-2,4-dimethylquinolin-5-yloxy]acetic Acid] it is more than 7.00.
As to `Cc1nc2c(Cl)ccc(OCc3nnn[nH]3)c2c(C)c1Cc1ccc(Cl)cc1` [Example 23, 8-chloro-3-(4-chlorobenzyl)-2,4-dimethyl-5-(1H-tetrazol-5-ylmethoxy)quinoline], the pKi is more than 5.00.
Compound `Cc1nc2c(Cl)ccc(OCC(=O)O)c2c(OC(F)F)c1Sc1ccc(Cl)cc1` [Example 24, [8-chloro-3-(4-chlorophenylsulfanyl)-4-difluoromethoxy-2-methyl-quinolin-5-yloxy]acetic Acid] gave a pKi of more than 7.00.
Compound `Cc1nc2c(Cl)ccc(CC(=O)O)c2c(OC(F)F)c1Cc1ccc(Cl)cc1` [Example 25, [8-chloro-3-(4-chlorobenzyl)-4-difluoromethoxy-2-methylquinolin-5-yl]acetic acid] had a negative-log Ki (pKi) of more than 6.00.
For `Cc1nc2c(Cl)ccc(OCC(=O)O)c2c(OC(F)F)c1Cc1ccc(S(C)(=O)=O)cc1` [Example 26, [8-chloro-4-difluoromethoxy-3-(4-methanesulfonylbenzyl)-2-methylquinolin-5-yloxy]acetic acid] the value was more than 7.00; for `Cc1nc2c(F)ccc(OCC(=O)O)c2c(OC(F)F)c1Cc1ccc(Cl)cc1` [Example 27, [3-(4-chlorobenzyl)-4-difluoromethoxy-8-fluoro-2-methylquinolin-5-yloxy]acetic acid], more than 7.00; for `Cc1nc2c(Cl)ccc(CC(=O)O)c2c(C)c1Cc1ccc(S(C)(=O)=O)cc1` [Example 28, [8-chloro-3-(4-methanesulfonylbenzyl)-2,4-dimethylquinolin-5-yl]acetic acid], more than 6.00.
`CCc1nc2c(Cl)ccc(OCC(=O)O)c2c(OC(F)F)c1Cc1ccc(S(C)(=O)=O)cc1` [Example 29, [8-chloro-4-difluoromethoxy-2-ethyl-3-(4-methanesulfonylbenzyl)-quinolin-5-yloxy]acetic acid] had a pKi of more than 7.00.
The figure for `Cc1c(Cc2ccc(Cl)cc2)c(OC(F)F)nc2c(F)ccc(OCC(=O)O)c12` [Example 30, [3-(4-chlorobenzyl)-2-difluoromethoxy-8-fluoro-4-methylquinolin-5-yloxy]-acetic Acid] is more than 7.00; for `Cc1c(Cc2ccc(F)cc2)c(OC(C)C)nc2c(Cl)ccc(OCC(=O)O)c12` [Example 31, [8-chloro-3-(4-fluorobenzyl)-2-isopropoxy-4-methylquinolin-5-yloxy]acetic Acid] it is more than 6.00; for `Cc1nc2c(Cl)ccc(OCC(=O)O)c2c(OC(C)C)c1Cc1ccc(F)cc1` [Example 32, [8-chloro-3-(4-fluorobenzyl)-4-isopropoxy-2-methylquinolin-5-yloxy]acetic Acid] it is more than 6.00.
